The results in this text go back to US20230203029A1 (priority 2020, published 2023).

In general, IC50 refers to the concentration at which inhibition is half-maximal.

Read-outs that look alike come from different tables or passages of the source.

The target in experiment [1] is T1, recombinant human MERTK expressed in live cells (HEK 293, MERTK-Nanoluc fusion vector) (Homo sapiens, UniProt Q12866).
T1 construct: host or cells: HEK 293
T1 sequence (Q12866 21-999): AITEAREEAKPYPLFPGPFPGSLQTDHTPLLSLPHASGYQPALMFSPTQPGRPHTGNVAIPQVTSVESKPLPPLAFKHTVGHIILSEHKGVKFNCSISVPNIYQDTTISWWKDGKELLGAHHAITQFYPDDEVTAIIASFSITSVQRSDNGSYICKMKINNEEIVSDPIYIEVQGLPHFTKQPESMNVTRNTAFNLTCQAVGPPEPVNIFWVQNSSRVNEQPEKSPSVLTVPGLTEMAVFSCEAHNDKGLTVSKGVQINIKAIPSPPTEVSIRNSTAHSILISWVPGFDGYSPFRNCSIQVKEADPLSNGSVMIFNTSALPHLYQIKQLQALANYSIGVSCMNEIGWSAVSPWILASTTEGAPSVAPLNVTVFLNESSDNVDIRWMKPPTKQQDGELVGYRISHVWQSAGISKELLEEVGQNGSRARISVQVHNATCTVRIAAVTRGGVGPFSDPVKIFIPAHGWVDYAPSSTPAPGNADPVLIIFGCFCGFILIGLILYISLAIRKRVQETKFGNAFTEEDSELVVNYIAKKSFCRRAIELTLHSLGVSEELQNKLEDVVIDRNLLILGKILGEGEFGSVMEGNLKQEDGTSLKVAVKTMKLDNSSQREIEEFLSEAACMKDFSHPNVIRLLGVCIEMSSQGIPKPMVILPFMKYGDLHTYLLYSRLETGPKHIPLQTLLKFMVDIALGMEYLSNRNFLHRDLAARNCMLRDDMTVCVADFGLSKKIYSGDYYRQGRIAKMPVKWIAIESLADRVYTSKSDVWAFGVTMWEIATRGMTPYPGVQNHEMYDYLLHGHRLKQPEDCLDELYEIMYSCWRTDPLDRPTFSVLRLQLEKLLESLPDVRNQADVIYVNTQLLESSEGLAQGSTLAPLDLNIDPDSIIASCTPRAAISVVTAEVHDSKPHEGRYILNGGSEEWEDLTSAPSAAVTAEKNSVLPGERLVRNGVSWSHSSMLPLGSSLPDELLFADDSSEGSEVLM
As to the kind of experiment: Assay 2 MERTK cellular target engagement (NanoBRET TE) assay. Type of experiment: cell-based. As to conditions: HEK 293 cells, tracer K9, 2 h at 37° C.; read-out: Assay 2 Cell TE MER IC50.

Experiment [2] addresses T2, human AXL cytoplasmic domain (Homo sapiens, UniProt P30530).
T2 construct: human AXL cytoplasmic domain (Thermo Fisher A31515); purchased Thermo Fisher A31515
T2 sequence (P30530 473-894 limits assumed): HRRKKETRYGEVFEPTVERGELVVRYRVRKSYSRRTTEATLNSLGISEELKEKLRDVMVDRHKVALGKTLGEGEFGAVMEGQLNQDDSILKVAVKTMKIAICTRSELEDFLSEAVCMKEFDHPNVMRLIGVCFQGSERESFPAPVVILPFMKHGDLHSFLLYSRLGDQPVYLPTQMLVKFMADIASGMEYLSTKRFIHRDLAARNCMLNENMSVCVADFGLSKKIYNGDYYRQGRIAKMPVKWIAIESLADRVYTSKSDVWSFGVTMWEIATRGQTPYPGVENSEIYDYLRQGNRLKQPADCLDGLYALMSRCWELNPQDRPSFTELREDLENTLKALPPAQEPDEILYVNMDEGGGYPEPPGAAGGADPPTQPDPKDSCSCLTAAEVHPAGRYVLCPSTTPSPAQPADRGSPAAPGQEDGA
Put plainly: Assay 1b AXL HTRF KinEASE-TK assay. Type of experiment: biochemical. A digest of the protocol:
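Recombinant cytoplasmic domain (5 nM) in kinase buffer with 5 mM MgCl2, 1 mM MnCl2, 1 mM DTT, 50 nM SEB plus test compounds; reaction 30 min at room temperature. EDTA-containing detection with TK antibody-cryptate/streptavidin-XL665 for 60 min; HTRF 665/620 ratio read. IC50 from 4-parameter logistic fit with variable slope.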

Experiment [3] deals with T3, human MERTK cytoplasmic domain (Homo sapiens, UniProt Q12866).
T3 construct: human MERTK cytoplasmic domain (Carna Biosciences 08-108); purchased Carna Biosciences 08-108
Put plainly: biochemical. The settings on record: 30 uM ATP; read-out: Assay 1a Mer IC50 30 uM ATP. How it is done: Assay 1a—MERTK HTRF KinEASE-TK Assay
The enzymatic reaction was carried out for 30 min at room temperature. 10 μL TK Antibody-Cryptate/Streptavidin-XL665 (Cisbio 610SAXLG) was then added for 60 min, including EDTA containing detection buffer (Cisbio 62SDBRDF) to stop the reaction.

Experiment [4] addresses T4, recombinant human AXL expressed in live cells (HEK, AXL-Nanoluc fusion vector) (Homo sapiens, UniProt P30530).
T4 construct: host or cells: HEK
T4 sequence (P30530 26-894): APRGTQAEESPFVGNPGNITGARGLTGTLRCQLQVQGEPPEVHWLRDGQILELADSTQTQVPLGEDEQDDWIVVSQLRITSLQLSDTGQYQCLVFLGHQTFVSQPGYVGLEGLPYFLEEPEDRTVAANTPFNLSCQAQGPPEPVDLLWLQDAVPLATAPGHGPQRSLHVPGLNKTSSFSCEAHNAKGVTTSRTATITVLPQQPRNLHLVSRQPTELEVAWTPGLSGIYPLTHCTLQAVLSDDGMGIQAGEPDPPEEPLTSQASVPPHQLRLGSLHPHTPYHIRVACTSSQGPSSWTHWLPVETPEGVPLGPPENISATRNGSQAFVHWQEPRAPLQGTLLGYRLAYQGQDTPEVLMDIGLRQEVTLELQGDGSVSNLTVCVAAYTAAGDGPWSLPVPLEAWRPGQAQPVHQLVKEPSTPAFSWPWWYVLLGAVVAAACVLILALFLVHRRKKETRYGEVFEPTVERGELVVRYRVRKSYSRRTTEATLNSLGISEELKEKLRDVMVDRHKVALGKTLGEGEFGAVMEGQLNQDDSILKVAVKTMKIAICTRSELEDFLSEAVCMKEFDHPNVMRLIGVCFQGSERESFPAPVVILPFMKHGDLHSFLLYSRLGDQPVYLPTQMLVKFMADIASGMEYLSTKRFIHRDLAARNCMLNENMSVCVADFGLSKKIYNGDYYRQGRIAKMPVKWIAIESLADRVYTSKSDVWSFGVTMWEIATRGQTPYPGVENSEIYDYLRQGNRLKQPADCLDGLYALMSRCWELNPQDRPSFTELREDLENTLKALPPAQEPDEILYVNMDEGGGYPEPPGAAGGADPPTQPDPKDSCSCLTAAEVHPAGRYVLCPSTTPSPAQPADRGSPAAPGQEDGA
As to the kind of experiment: Assay 3 AXL cellular target engagement (NanoBRET TE) assay. Type of experiment: cell-based. How it is done: Assay 3—AXL Cellular Target Engagement (TE) Assay
Compound affinities for recombinant human AXL expressed in live cells were assessed via the Promega NanoBRET TE assay technology. Human Embryonic Kidney (HEK) cells were transiently transfected with the AXL-Nanoluc fusion vector (Promega Cat NV1071) using Fugene HD reagent (Promega E2311). […] Incubations were conducted for 2 h at 37° C., after which 20 μl NanoGlo substrate/inhibitor mix (Promega N2161) was added to each well for 2-3 min. The plate was then read on a BMG Pherastar FSX using a NanoBRET filter to record donor emission at 450 nm and acceptor fluorophore emission at 610 nm. From this the BRET ratio (acceptor 610 nm/donor 450 nm) for each data point was calculated.
In general terms: BRET reads energy transfer from a luciferase to a nearby fluorophore.

Setting [5] is: HEK cells, tracer K5, 2 h at 37° C., read-out: Assay 3 Cell TE Axl IC50.

As for `O=C(Nc1ccc(Oc2ccnc3cnc(N4CCNCC4)cc23)cc1)c1cccn(-c2ccccc2)c1=O` [Example 12, 2-Oxo-1-phenyl-N-[4-[(6-piperazin-1-yl-1,7-naphthyridin-4-yl)oxy]phenyl]pyridine-3-carboxamide], the IC50 was found to be 80.4 nM in experiment [1], 54 nM in experiment [2], 11 nM in experiment [3] and 114 nM in experiment [4] (setting [5]).
Consider `CN1CCC(NC(=O)c2cc3c(Oc4ccc(NC(=O)c5cccn(-c6ccccc6)c5=O)nc4)ccnc3cn2)CC1` [Example 28.2, N-(1-methyl-4-piperidyl)-4-[[6-[(2-oxo-1-phenyl-pyridine-3-carbonyl)amino]-3-pyridyl]oxy]-1,7-naphthyridine-6-carboxamide], for which the half-inhibitory concentration (IC50) in experiment [1] is 95.6 nM; in experiment [2], 60 nM; in experiment [3], 31 nM; in experiment [4] it was 83.3 nM.
In the case of `O=C(Nc1ccc(Oc2ccnc3cnc(N4CCNCC4)cc23)c(F)c1)c1cccn(-c2ccccc2)c1=O` [Example 31, N-[3-fluoro-4-[(6-piperazin-1-yl-1,7-naphthyridin-4-yl)oxy]phenyl]-2-oxo-1-phenyl-pyridine-3-carboxamide], the IC50 in experiment [1] is 26.1 nM; in experiment [2], 12 nM; in experiment [3], 6 nM; in experiment [4], 34.9 nM.
Regarding `O=C(Nc1ccc(Oc2ccnc3cnc(N4CCNCC4)cc23)cn1)c1cccn(-c2ccccc2)c1=O` [Example 32, 2-oxo-1-phenyl-N-[5-[(6-piperazin-1-yl-1,7-naphthyridin-4-yl)oxy]-2-pyridyl]pyridine-3-carboxamide], the IC50 in experiment [1] was 80.8 nM; in experiment [2] it was 310 nM; in experiment [3] it was 17 nM; in experiment [4] (setting [5]), 127 nM.
